Drawing on PubChem BioAssay (NCI), this text covers TGI for eleven compounds.

Test in all cases: DTP human tumour cell line panel, 48 h
Experiment [1] deals with DLD-1 colon.
In experiment [2] the test system is DMS 114 small cell lung.
Experiment [3] relates to HOP-18 NSCLC.
Experiment [4] deals with KM20L2 colon.
Experiment [5] concerns LXFL 529 NSCLC.
Experiment [6] concerns M19-MEL melanoma.
Experiment [7] relates to MALME-3M melanoma.
The subject of experiment [8] is NCI-H23 lung.
In experiment [9] the test system is OVCAR-4 ovarian.
Experiment [10] deals with RXF-631 renal.
The subject of experiment [11] is SK-MEL-28 melanoma.
The test system of experiment [12] is SNB-78 CNS.
The test system of experiment [13] is XF 498 CNS.
Experiment [14] relates to DMS 273 small cell lung.

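Method: 48-hour compound exposure of cells in 96-well plates, five concentrations, linear interpolation of endpoints. TGI is the concentration that stops growth completely.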 Bounds are passed on as bounds.

Turning to `CCN(N=O)C1C2(CCCC2)NC(=O)C12CCCC2` (stereo unspecified), the TGI in [1], in experiment [2], in [3], in experiment [4], in [5] and in experiment [6] was over 100 µM in each case. Moreover, the TGI in experiment [7], in experiment [8], in experiment [9], in experiment [10], in experiment [11] and in experiment [12] was over 100 µM throughout. The TGI in experiment [13] was over 100 µM.
For the compound `Cc1c(-c2coc(-c3ccc([N+](=O)[O-])cc3)n2)c(=O)n(-c2ccccc2)n1C`, the TGI in experiment [1], in experiment [2], in [14], in experiment [4], in experiment [5] and in experiment [6] was over 100 µM each time. Moreover, the TGI in experiment [7], in [8], in experiment [9], in [11] and in experiment [12] was over 100 µM throughout.
As to `COC(=O)C(=O)C(C(=O)OC)C(=O)C(=O)Nc1cc(Cl)c(C)cc1S(=O)(=O)O` (stereo unspecified), the TGI in experiment [1], in [2], in [14], in experiment [3], in experiment [4] and in experiment [5] was over 100 µM each time. The TGI in experiment [6], in [7], in experiment [8], in [9], in experiment [11] and in [12] was over 100 µM throughout. In experiment [13], this compound came in with a TGI of over 100 µM.
For `COc1cc2ccnc(C#N)c2cc1OCc1ccccc1`, the concentration for total growth inhibition (TGI) in experiment [1], in experiment [3], in experiment [4], in [5], in experiment [7] and in [8] was over 100 µM each time. Further, the TGI in experiment [9], in [11], in [12] and in experiment [13] was over 100 µM in each case.
Take `O=C(O)C12C3CCC(C3)C1(C(=O)O)C1CCC2C1` (stereo unspecified): the TGI in experiment [1] was 64.1 µM; in [2] it was over 100 µM; in [14] it was over 100 µM; in experiment [3] it was over 100 µM; in [4] it was over 100 µM; in experiment [5] it was over 100 µM. The TGI in [6], in experiment [7], in experiment [8], in experiment [10], in experiment [11] and in experiment [12] was over 100 µM in each case. Also, the concentration for total growth inhibition (TGI) in experiment [13] is over 100 µM.
Regarding `COc1ccccc1/C=C1\CCC(Cc2ccccc2)(CN(C)C)C1=O` (stereo unspecified), the TGI in [1] was over 80.4 µM; in experiment [2], over 36.2 µM; in [14], 2.48 µM; in experiment [3] it was over 100 µM; in experiment [4], 2.34 µM; in experiment [5] it was over 52.3 µM. Moreover, the TGI in [6] was over 58.9 µM; in experiment [7], over 100 µM; in experiment [8], over 100 µM; in [9], over 100 µM; in [10], 9.92 µM; in experiment [11], over 100 µM. The TGI was over 23.2 µM in [12] and over 72.6 µM in [13].
For `O=C(c1ccccc1)n1cc(/C=C/[N+](=O)[O-])c2ccccc21`, the TGI was 33.5 µM in experiment [1]; 38 µM in experiment [2]; 55.1 µM in [14]; over 100 µM in experiment [3]; 35.1 µM in [5]; 38.9 µM in experiment [6]. Besides, the TGI worked out at 96.7 µM in experiment [7]; 37.6 µM in experiment [8]; 77.3 µM in [9]; 48.2 µM in experiment [10]; 33.6 µM in [11]; 79.9 µM in experiment [12]. Further, the total growth inhibition concentration (TGI) in [13] is 78.5 µM.
Turning to `O=C1CCC(=O)c2ccccc2N1`, the TGI in [1], in [2], in [14], in [3], in [4] and in experiment [5] was over 100 µM throughout. Further, the TGI in experiment [6], in [7], in experiment [8], in experiment [9], in experiment [11] and in [13] was over 100 µM in each case.
Consider `CN1CCS(=O)(=O)NC(Cc2ccccc2)C(=O)N2CCCC2C1=O` (stereo unspecified), for which the TGI in experiment [1], in experiment [2], in experiment [14], in experiment [3], in experiment [4] and in experiment [5] was over 100 µM each time. Besides, the concentration for total growth inhibition (TGI) in experiment [6], in experiment [7], in experiment [8], in experiment [9], in experiment [11] and in experiment [12] was over 100 µM throughout. For the same compound, in experiment [13], the TGI was over 100 µM.
`COc1ccc(OC(=O)N2C/C(=C\c3ccccc3)C(=O)/C(=C/c3ccccc3)C2)cc1`: the TGI is 5.29 µM in experiment [1]; 6.28 µM in [14]; 49.5 µM in [3]; 17 µM in [4]; 6.92 µM in experiment [5]; 2.9 µM in experiment [6]. The TGI in experiment [7] turned out to be 27.8 µM; in experiment [8], 17.1 µM; in experiment [9], 23.5 µM; in experiment [11], 4.97 µM; in [12] it was 27.3 µM.
For the compound `O=C1c2ccccc2C(=O)c2c1oc1cc(O)c(Cl)cc21`, the TGI was 19.5 µM in experiment [1]; 6.1 µM in experiment [2]; 10.8 µM in experiment [14]; 6.79 µM in experiment [3]; 6.79 µM in experiment [4]; over 46.3 µM in experiment [5]. For the same compound, the TGI was determined as 0.445 µM in experiment [6]; 2.51 µM in experiment [7]; 3.27 µM in experiment [8]; 23.4 µM in experiment [9]; 7.62 µM in experiment [11]; 19.5 µM in experiment [12]. Also, the total growth inhibition concentration (TGI) in experiment [13] amounted to 20.2 µM.
